From patent US10654867B2 (Genentech, Inc., priority 2016, dated 2020)

What follows are molecules tested against T1, estrogen receptor alpha (ESR1) in MCF7 breast cancer cells (Homo sapiens, UniProt P03372) (assay: Breast Cancer Cell ERa High Content Fluorescence Imaging Degradation Assay (ER-alpha MCF7 HCS)). Details: 4 hours, plateau of the maximal effect, DMSO and fulvestrant define 0% and 100% change in ESR1, Table 1a.
T1 sequence (P03372 1-595): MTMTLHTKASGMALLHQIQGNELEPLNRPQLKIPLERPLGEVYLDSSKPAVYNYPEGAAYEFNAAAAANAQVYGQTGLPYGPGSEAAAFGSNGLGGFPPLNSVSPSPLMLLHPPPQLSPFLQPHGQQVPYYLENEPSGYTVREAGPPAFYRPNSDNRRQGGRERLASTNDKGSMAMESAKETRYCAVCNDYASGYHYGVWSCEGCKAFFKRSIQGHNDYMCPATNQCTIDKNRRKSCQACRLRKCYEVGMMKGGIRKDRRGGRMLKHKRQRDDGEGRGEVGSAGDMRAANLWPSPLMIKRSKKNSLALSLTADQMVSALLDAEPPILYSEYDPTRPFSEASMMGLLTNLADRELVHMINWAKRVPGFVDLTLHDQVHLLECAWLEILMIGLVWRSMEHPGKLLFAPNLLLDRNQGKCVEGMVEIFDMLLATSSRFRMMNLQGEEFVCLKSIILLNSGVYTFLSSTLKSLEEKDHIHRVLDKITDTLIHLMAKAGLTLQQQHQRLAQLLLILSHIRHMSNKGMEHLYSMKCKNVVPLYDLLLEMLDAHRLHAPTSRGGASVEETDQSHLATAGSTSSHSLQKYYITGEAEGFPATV
Type: cell-based
Parameters: endogenous in cells; host or cells: MCF7 breast cancer cells; key to ERalpha (WT) MCF7HCS (Sinf): % change in ERα level; DMSO = 0%, fulvestrant = 100% change
Protocol: All of the exemplary Formula I, II, and III compounds in Tables 1a and 1b were made and characterized by LCMS [M+H]^+ (liquid chromatography mass spectroscopy) with detection of parent ion. All of the exemplary Formula I, II, and III compounds in Tables 1a and 1b were tested for binding to ERa (Estrogen Receptor alpha) and biological activity according to the assays, protocols, and procedures of Examples 901-907. ER-alpha MCF7 HCS Sinf (%) values in Tables 1a and 1b were measured by the Breast Cancer Cell ERa High Content Fluorescence Imaging Degradation Assay of Example 901. ER-alpha MCF7 HCS EC50 (μM) values in Tables 1a and 1b were measured by the in vitro cell proliferation assays described in Examples 902 and 903. The rat uterine wet weight assays of Examples 906 and 907 allow rapid determination of compound antagonist activity in an ER responsive tissue (immature rat uterus) while competing against the native ER ligand estradiol, i.e. antagonist mode (Ashby, J.; et al (1997) Regulatory toxicology and pharmacology: RTP, 25 (3):226-31). Exemplary Formula I, II, and III compounds in Tables 1a and 1b have the following structures, corresponding names (ChemBioDraw, Version 12.0.2, CambridgeSoft Corp., Cambridge Mass.), and biological activity. Where more than one name is associated with a Formula I, II, and III compound or intermediate, the chemical structure shall define the compound.
MCF7 breast cancer cells were seeded on day 1 at a density of 10,000 cells per well in 384 well poly-lysine coated tissue culture plate (Greiner # T-3101-4), in 50 μL/well RPMI (phenol red free), 10% FBS (Charcoal stripped), containing L-glutamine. On day 2, compounds were prepared at 2 compound source concentrations: 100 μM and 1 μM (ultimately to give 2 overlapping titration curves), in a Labcyte low dead volume plate, 10 μL/well, and 10 μL of DMSO in designated wells for backfill, and 5 μM Fulvestrant (control compound) in designated wells. Compounds and controls were dispensed using a Labcyte Echo acoustic dispenser to dispense compounds with a predefined serial dilution (1.8×, 10 point, in duplicate) and appropriate backfill and control compounds (final total volume transferred was 417.5 nL and compound dispense volume ranges from 2.5 nL to 417.5 nL; 0.84% DMSO (v/v) final), ultimately producing a concentration range from 0.05 nM to 835 nM. Cell plates were incubated at 37° C., for 4 hours. Fixation and permeabilization were carried out using a Biotek EL406 plate washer and dispenser as follows. Cells were fixed by addition of 15 μL of 16% paraformaldehyde (Electron Microscopy Sciences #15710-S) directly to the 50 μL cell culture medium in each well using the peristaltic pump 5 μL cassette on a Biotek EL406 (final concentration of formaldehyde was 3.7% w/v). Samples were incubated 30 minutes. Well contents was aspirated and 50 μL/well of Phosphate Buffered Saline (PBS) containing 0.5% w/v bovine serum albumen, 0.5% v/v Triton X-100 (Antibody Dilution Buffer) was added to each well. Samples were incubated for 30 minutes. Well contents were aspirated and washed 3 times with 100 μL/well of PBS. Immunofluorescence staining of estrogen receptor alpha (ESR1) was carried out using a Biotek EL406 plate washer and dispenser as follows. The well supernatant was aspirated from the wells and 25 μL/well of anti-ESR1 mAb (F10) (Santa Cruz sc-8002) diluted 1:1000 in Antibody Dilution Buffer was dispensed. Samples were incubated for 2 hours at room temperature. Samples were washed 4 times with 100 μL/well of PBS. 25 uL (microliters)/well of secondary antibody solution (Alexafluor 488 conjugate anti-mouse IgG (LifeTechnologies # A21202) diluted 1:1000 and Hoechst 33342 1 μg/ml diluted in Antibody Dilution Buffer) were dispensed into each well. Samples were incubated for 2 hours at room temperature. Samples were washed 3 times with 100 μL/well of PBS using a Biotek EL406. Quantitative fluorescence imaging of ESR1 was carried out using a Cellomics Arrayscan V (Thermo). […]

Compound	ER-alpha MCF7HCS Sinf [%]
CC(C)(F)CN1CCCc2c([nH]c3ccccc23)[C@H]1c1c(F)cc(OCCN2CC(CF)C2)cc1F [Example 103, (R)-1-(2,6-difluoro-4-(2-(3-(fluoromethyl)azetidin-1-yl)ethoxy)phenyl)-2-(2-fluoro-2-methylpropyl)-1,2,3,4,5,10-hexahydroazepino[3,4-b]indole]	−96.7
CC(C)C(=O)N1[C@H](c2c(F)cc(OCCN3CC(CF)C3)cc2F)c2sc3ccccc3c2C[C@H]1C (relative stereo) [Example 102, 1-((1,3-trans)-1-(2,6-difluoro-4-(2-(3-(fluoromethyl)azetidin-1-yl)ethoxy)phenyl)-3-methyl-3,4-dihydrobenzo[4,5]thieno[2,3-c]pyridin-2(1H)-yl)-2-methylpropan-1-one]	−64.5
C[C@@H]1CN(CC(C)(C)F)[C@H](c2c(F)cc(OCCN3CC(CF)C3)cc2F)c2[nH]c3ccccc3c21 (single isomer, unassigned) [Example 108]	−92.4
C[C@@H]1Cc2c([nH]c3cccnc23)[C@@H](c2c(F)cc(OC3CN(CCCF)C3)cc2F)N1CC(C)(C)F [Example 133, (6R,8R)-6-{2,6-Difluoro-4-[2-(3-fluoromethyl-azetidin-1-yl)-ethoxy]-phenyl}-7-(2-fluoro-2-methyl-propyl)-8-methyl-6,7,8,9-tetrahydro-5H-dipyrido[3,2-b;4′,3′-d]pyrrole]	−94.5
C[C@@H]1CCN(CC(C)(C)F)[C@@H](c2c(F)cc(OCCN3CC(CF)C3)cc2F)c2[nH]c3ccccc3c21 [Example 126, (1S,5R)-1-(2,6-difluoro-4-(2-(3-(fluoromethyl)azetidin-1-yl)ethoxy)phenyl)-2-(2-fluoro-2-methylpropyl)-5-methyl-1,2,3,4,5,10-hexahydroazepino[3,4-b]indole]	−50
C[C@H]1CN(CC(C)(C)F)[C@H](c2c(F)cc(OCCN3CC(CF)C3)cc2F)c2[nH]c3ccccc3c21 (single isomer, unassigned) [Example 107]	−97.8
CC(F)(CO)CN1CCCc2c([nH]c3ccccc23)[C@@H]1c1c(F)cc(OCCN2CC(CF)C2)cc1F (stereo partly drawn) [Example 119, 3-((S)-1-(2,6-difluoro-4-(2-(3-(fluoromethyl)azetidin-1-yl)ethoxy)phenyl)-3,4,5,10-tetrahydroazepino[3,4-b]indol-2(1H)-yl)-2-fluoro-2-methylpropan-1-ol]	−95.6
C[C@](F)(CO)CN1CCCc2c([nH]c3ccccc23)[C@H]1c1c(F)cc(OCCN2CC(CF)C2)cc1F [Example 118, (R)-3-((R)-1-(2,6-difluoro-4-(2-(3-(fluoromethyl)azetidin-1-yl)ethoxy)phenyl)-3,4,5,10-tetrahydroazepino[3,4-b]indol-2(1H)-yl)-2-fluoro-2-methylpropan-1-ol]	−95.9
C[C@H]1Cc2sc3ccccc3c2[C@@H](c2ccc(OCCN3CC(CF)C3)cc2)N1CC(C)(C)F [Example 131, (1R,3S)-2-(2-fluoro-2-methylpropyl)-1-(4-(2-(3-(fluoromethyl)azetidin-1-yl)ethoxy)phenyl)-3-methyl-1,2,3,4-tetrahydrobenzo[4,5]thieno[3,2-c]pyridine]	−99

Continued, values first:

ER-alpha MCF7HCS Sinf [%]	Compound
−68	CC(C)(F)CN1[C@H](c2c(F)cc(OCCN3CC(CF)C3)cc2F)c2[nH]c3ccccc3c2[C@H]2CC[C@H]21 [Example 138, (2aR,4R,9cR)-4-(2,6-difluoro-4-(2-(3-(fluoromethyl)azetidin-1-yl)ethoxy)phenyl)-3-(2-fluoro-2-methylpropyl)-2,2a,3,4,5,9c-hexahydro-1H-cyclobuta[5,6]pyrido[3,4-b]indole]
−30	C[C@H]1Cc2[nH]c3ccccc3c2[C@H](c2c(F)cc(NC3CN(CCCF)C3)cc2F)N1CC(F)(F)F [Example 153, N-(3,5-difluoro-4-((1R,3S)-3-methyl-2-(2,2,2-trifluoroethyl)-2,3,4,5-tetrahydro-1H-pyrido[4,3-b]indol-1-yl)-phenyl)-1-(3-fluoropropyl) azetidin-3-amine]
−51	C[C@H]1Cc2[nH]c3ccccc3c2[C@H](c2c(F)cc(OCCN3CC(CF)C3)cc2F)N1CC(C)(C)F (single isomer, unassigned) [Example 136]
−75	CC1Cc2[nH]c3ccccc3c2C(c2c(F)cc(NC3CN(CCCF)C3)cc2F)N1CCF (stereo not shown) [Example 149, (□)-N-(3,5-difluoro-4-(2-(2-fluoroethyl)-3-methyl-2,3,4,5-tetrahydro-1H-pyrido[4,3-b]indol-1-yl)phenyl)-1-(3-fluoropropyl) azetidin-3-amine]
−94.2	C[C@@H]1Cc2[nH]c3ccccc3c2[C@@H](c2c(F)cc(OCCN3CC(CF)C3)cc2F)N1CC(C)(C)F [Example 137, (1S,3R)-1-(2,6-difluoro-4-(2-(3-(fluoromethyl)azetidin-1-yl)ethoxy)phenyl)-2-(2-fluoro-2-methylpropyl)-3-methyl-2,3,4,5-tetrahydro-1H-pyrido[4,3-b]indole]
−96.9	C[C@H]1Cc2c(sc3ccccc23)[C@H](c2c(F)cc(NC3CN(CCCF)C3)cc2F)N1CC(F)(F)CO (single isomer, unassigned) [Example 160]
−103	C[C@@H]1Cn2c(cc3ccccc32)[C@@H](c2c(F)cc(OC3CN(CCCF)C3)cc2F)N1CC(F)(F)F [Example 141, (1R,3R)-1-(2,6-difluoro-4-((1-(3-fluoropropyl)azetidin-3-yl)oxy)phenyl)-3-methyl-2-(2,2,2-trifluoroethyl)-1,2,3,4-tetrahydropyrazino[1,2-a]indole]

Same assay, conditions: 4 hours, plateau of the maximal effect, DMSO and fulvestrant define 0% and 100% change in ESR1, Table 1b

ERalpha (WT) MCF7HCS (Sinf)	Compound
−100	C[C@@H]1Cn2c(cc3ccccc32)[C@@H](c2c(F)cc([C@@H](O)C3CN(CCCF)C3)cc2F)N1CC(F)(F)CO (single isomer, unassigned) [Example 163]
−98.6	C[C@@H]1Cn2c(cc3ccccc32)[C@@H](c2c(F)cc([C@H](O)C3CN(CCCF)C3)cc2F)N1CC(F)(F)CO (single isomer, unassigned) [Example 164]
−97	C[C@H]1Cc2oc3ccccc3c2[C@H](c2c(F)cc(OCCN3CC(CF)C3)cc2F)N1CC(C)(C)F (stereo in doubt) [Example 168, 1-(2,6-difluoro-4-(2-(3-(fluoromethyl)azetidin-1-yl)ethoxy)phenyl)-2-(2-fluoro-2-methylpropyl)-3-methyl-1,2,3,4-tetrahydrobenzofuro [3,2-c]pyridine]
